From patent US9796711B2, “Substituted pyrazolo[3,4-b]pyridin-6-carboxylic acids and method of use” (AbbVie S.àr.l., priority 2015, dated 2017)

Experiments:
[1] = biological target: T1, ΔF508-CFTR (Homo sapiens, UniProt P13569, DEL508-508); experiment: CFTR cell surface levels using HRP-tagged ΔF508-CFTR expressing CFBE cells, intrinsic corrector capacity; assay type: cell-based; conditions: HRP-tagged ΔF508-CFTR expressing CFBE cells, intrinsic corrector capacity (no co-corrector), 33° C., 20 hours; for EC50: read-out: EC50
T1 construct: host or cells: CFBE41o-, doxycycline-inducible
Procedure, shortened: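 Here the cells express ΔF508-CFTR with horseradish peroxidase inserted in extracellular loop 4, so only rescued channel at the surface gives luminescent signal. Compounds act on their own, 20 h at the reduced temperature of 33 °C; values are percent activity relative to DMSO and a 3 μM corrector.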

[2] = biological target: T1, ΔF508-CFTR; experiment: CFTR cell surface levels using HRP-tagged ΔF508-CFTR expressing CFBE cells, in the presence of a co-corrector; assay type: cell-based; conditions: HRP-tagged ΔF508-CFTR expressing CFBE cells, in the presence of 3 μM co-corrector; for EC50: read-out: EC50
Procedure, shortened: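 Cells were seeded with 0.5 μg/mL doxycycline and held 68 h at 37 °C. Test compounds plus 3 μM co-corrector (final 0.1% DMSO) were then added for 20 h at 33 °C. Washed cells received HRP substrate, and luminescence was normalized between DMSO and 3 μM co-corrector controls.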

T1 sequence (P13569 with tags, fused parts or gaps DEL508-508): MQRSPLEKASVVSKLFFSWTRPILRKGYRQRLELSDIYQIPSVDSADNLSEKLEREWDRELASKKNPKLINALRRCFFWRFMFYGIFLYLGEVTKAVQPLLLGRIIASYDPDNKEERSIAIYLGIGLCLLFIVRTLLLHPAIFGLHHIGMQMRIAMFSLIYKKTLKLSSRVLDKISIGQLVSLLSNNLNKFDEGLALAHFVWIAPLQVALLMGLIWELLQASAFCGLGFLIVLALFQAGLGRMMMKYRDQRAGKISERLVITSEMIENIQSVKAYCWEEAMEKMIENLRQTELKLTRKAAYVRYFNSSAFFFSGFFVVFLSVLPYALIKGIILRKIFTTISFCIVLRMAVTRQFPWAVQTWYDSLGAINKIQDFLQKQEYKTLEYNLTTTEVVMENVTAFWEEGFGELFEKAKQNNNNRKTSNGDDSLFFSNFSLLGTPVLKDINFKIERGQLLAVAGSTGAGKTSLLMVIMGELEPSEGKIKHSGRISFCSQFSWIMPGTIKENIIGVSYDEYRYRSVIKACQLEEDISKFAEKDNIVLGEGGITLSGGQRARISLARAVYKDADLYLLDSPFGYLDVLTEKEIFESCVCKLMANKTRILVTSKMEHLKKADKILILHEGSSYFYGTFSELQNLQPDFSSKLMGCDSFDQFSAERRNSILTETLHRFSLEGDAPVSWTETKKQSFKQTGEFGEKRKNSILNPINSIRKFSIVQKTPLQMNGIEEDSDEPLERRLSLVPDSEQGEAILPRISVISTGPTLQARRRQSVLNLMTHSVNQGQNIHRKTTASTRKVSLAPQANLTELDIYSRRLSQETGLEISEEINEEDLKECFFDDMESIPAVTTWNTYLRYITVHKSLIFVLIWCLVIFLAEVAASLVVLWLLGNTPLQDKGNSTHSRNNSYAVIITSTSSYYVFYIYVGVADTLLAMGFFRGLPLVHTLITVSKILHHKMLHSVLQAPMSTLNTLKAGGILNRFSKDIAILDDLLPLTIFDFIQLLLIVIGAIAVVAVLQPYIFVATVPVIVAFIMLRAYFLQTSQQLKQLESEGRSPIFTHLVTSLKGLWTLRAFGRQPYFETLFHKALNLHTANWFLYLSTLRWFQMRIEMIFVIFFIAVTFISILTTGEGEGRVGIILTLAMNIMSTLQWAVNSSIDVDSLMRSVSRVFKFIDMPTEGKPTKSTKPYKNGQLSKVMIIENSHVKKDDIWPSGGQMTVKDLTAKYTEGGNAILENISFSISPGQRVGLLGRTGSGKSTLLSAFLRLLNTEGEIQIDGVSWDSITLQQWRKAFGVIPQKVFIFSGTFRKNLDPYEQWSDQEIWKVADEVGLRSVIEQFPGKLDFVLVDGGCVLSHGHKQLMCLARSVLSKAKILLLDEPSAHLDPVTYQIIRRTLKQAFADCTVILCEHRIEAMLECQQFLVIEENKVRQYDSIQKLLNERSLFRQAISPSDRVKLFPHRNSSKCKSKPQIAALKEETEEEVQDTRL

| Structure (SMILES) | % Activation [1] [%] | EC50 [1] [nM] | % Activation [2] [%] | EC50 [2] [nM] |
| --- | --- | --- | --- | --- |
| COCCCN1CCN(c2cc(C(=O)O)nc3c2c(C(C)C)nn3-c2ccc(F)cc2)CC1 [compound 776, 1-(4-fluorophenyl)-4-[4-(3-methoxypropyl)piperazin-1-yl]-3-(propan-2-yl)-1H-pyrazolo[3,4-b]pyridine-6-carboxylic acid] | 113.2 | 1670 | 261.4 | 531 |
| CCCN1CCN(c2cc(C(=O)O)nc3c2c(C(C)C)nn3-c2ccc(F)cc2)CC1 [compound 777, 1-(4-fluorophenyl)-3-(propan-2-yl)-4-(4-propylpiperazin-1-yl)-1H-pyrazolo[3,4-b]pyridine-6-carboxylic acid] | 95 | 1670 | 254.9 | 955 |
| CC(C)c1nn(-c2ccc(F)cc2)c2nc(C(=O)O)cc(N3CCN(CCOCCO)CC3)c12 [compound 778, 1-(4-fluorophenyl)-4-{4-[2-(2-hydroxyethoxy)ethyl]piperazin-1-yl}-3-(propan-2-yl)-1H-pyrazolo[3,4-b]pyridine-6-carboxylic acid] | 9.442 | 5000 | 149 | 1670 |
| CC(C)c1nn(-c2ccc(F)cc2)c2nc(C(=O)O)cc(N3CCN(CCC(=O)N4CCCN(C)CC4)CC3)c12 [compound 779, 1-(4-fluorophenyl)-4-{4-[3-(4-methyl-1,4-diazepan-1-yl)-3-oxopropyl]piperazin-1-yl}-3-(propan-2-yl)-1H-pyrazolo[3,4-b]pyridine-6-carboxylic acid] | 6.923 | 5000 | 121.2 | 5000 |
| CC(C)c1nn(-c2ccc(F)cc2)c2nc(C(=O)O)cc(N3CCC(CC4CCCCC4)CC3)c12 [compound 780, 4-[4-(cyclohexylmethyl)piperidin-1-yl]-1-(4-fluorophenyl)-3-(propan-2-yl)-1H-pyrazolo[3,4-b]pyridine-6-carboxylic acid] | 233.5 | 249 | 429.5 | 124 |
| CC(C)c1nn(-c2ccc(F)cc2)c2nc(C(=O)O)cc(N3CCC4(CCN(C)CC4)CC3)c12 [compound 781, 1-(4-fluorophenyl)-4-(9-methyl-3,9-diazaspiro[5.5]undecan-3-yl)-3-(propan-2-yl)-1H-pyrazolo[3,4-b]pyridine-6-carboxylic acid] | 154 | 1670 | 368.7 | 1560 |
| CC(C)c1nn(-c2ccc(F)cc2)c2nc(C(=O)O)cc(N3CCC4(CC3)OCCO4)c12 [compound 782, 4-(1,4-dioxa-8-azaspiro[4.5]decan-8-yl)-1-(4-fluorophenyl)-3-(propan-2-yl)-1H-pyrazolo[3,4-b]pyridine-6-carboxylic acid] | 174.4 | 673 | 345.2 | 272 |
| CC(C)c1nn(-c2ccc(F)cc2)c2nc(C(=O)O)cc(N3CCC[C@@H](O)C3)c12 [compound 783, 1-(4-fluorophenyl)-4-[(3R)-3-hydroxypiperidin-1-yl]-3-(propan-2-yl)-1H-pyrazolo[3,4-b]pyridine-6-carboxylic acid] | 95.05 | 1670 | 283.6 | 1670 |
| CC(C)c1nn(-c2ccc(F)cc2)c2nc(C(=O)O)cc(N3CCC(C)(N4CCCCC4)CC3)c12 [compound 784, 1-(4-fluorophenyl)-4-(4′-methyl [1,4′-bipiperidin]-1′-yl)-3-(propan-2-yl)-1H-pyrazolo[3,4-b]pyridine-6-carboxylic acid] | 38.94 | 1220 | 225.6 | 1670 |
| CC(C)c1nn(-c2ccc(F)cc2)c2nc(C(=O)O)cc(N3CCC(CCN4CCN(C)CC4)CC3)c12 [compound 785, 1-(4-fluorophenyl)-4-{4-[2-(4-methylpiperazin-1-yl)ethyl]piperidin-1-yl}-3-(propan-2-yl)-1H-pyrazolo[3,4-b]pyridine-6-carboxylic acid] | 264.9 | 622 | 482.8 | 558 |
| CC(C)c1nn(-c2ccc(F)cc2)c2nc(C(=O)O)cc(N3CC[C@@H](N4CCCCC4)C3)c12 [compound 786, 1-(4-fluorophenyl)-4-[(3R)-3-(piperidin-1-yl)pyrrolidin-1-yl]-3-(propan-2-yl)-1H-pyrazolo[3,4-b]pyridine-6-carboxylic acid] | 67.03 | 1160 | 221.6 | 907 |
| CCN(CC)C1CCN(c2cc(C(=O)O)nc3c2c(C(C)C)nn3-c2ccc(F)cc2)CC1 [compound 787, 4-[4-(diethylamino)piperidin-1-yl]-1-(4-fluorophenyl)-3-(propan-2-yl)-1H-pyrazolo[3,4-b]pyridine-6-carboxylic acid] | 121.5 | 771 | 309.9 | 1300 |
| CC(C)c1nn(-c2ccc(F)cc2)c2nc(C(=O)O)cc(N3CCN(C(C)(C)C)CC3)c12 [compound 788, 4-(4-tert-butylpiperazin-1-yl)-1-(4-fluorophenyl)-3-(propan-2-yl)-1H-pyrazolo[3,4-b]pyridine-6-carboxylic acid] | 115.7 | 1670 | 329.4 | 1670 |
| CC(C)c1nn(-c2ccc(F)cc2)c2nc(C(=O)O)cc(N3CCN(CC4CCCN(C)C4)CC3)c12 (stereo not shown) [compound 791, 1-(4-fluorophenyl)-4-{4-[(1-methylpiperidin-3-yl)methyl]piperazin-1-yl}-3-(propan-2-yl)-1H-pyrazolo[3,4-b]pyridine-6-carboxylic acid] | 79.95 | 1670 | 307.5 | 1670 |
| CC(C)c1nn(-c2ccc(F)cc2)c2nc(C(=O)O)cc(N3CCN(CC4CCCO4)CC3)c12 (stereo not shown) [compound 792, 1-(4-fluorophenyl)-4-{4-[(oxolan-2-yl)methyl]piperazin-1-yl}-3-(propan-2-yl)-1H-pyrazolo[3,4-b]pyridine-6-carboxylic acid] | 170.1 | 1430 | 321 | 710 |
| COCC(C)N1CCN(c2cc(C(=O)O)nc3c2c(C(C)C)nn3-c2ccc(F)cc2)CC1 (stereo not shown) [compound 793, 1-(4-fluorophenyl)-4-[4-(1-methoxypropan-2-yl)piperazin-1-yl]-3-(propan-2-yl)-1H-pyrazolo[3,4-b]pyridine-6-carboxylic acid] | 157.7 | 1670 | 363.5 | 1670 |
| CC(C)c1nn(-c2ccc(F)cc2)c2nc(C(=O)O)cc(N3CC(N4CCCC4)C3)c12 [compound 794, 1-(4-fluorophenyl)-3-(propan-2-yl)-4-[3-(pyrrolidin-1-yl)azetidin-1-yl]-1H-pyrazolo[3,4-b]pyridine-6-carboxylic acid] | 58.82 | 1670 | 168.7 | 788 |
| CC(C)c1nn(-c2ccc(F)cc2)c2nc(C(=O)O)cc(N3CCCN(C(C)C)CC3)c12 [compound 795, 1-(4-fluorophenyl)-3-(propan-2-yl)-4-[4-(propan-2-yl)-1,4-diazepan-1-yl]-1H-pyrazolo[3,4-b]pyridine-6-carboxylic acid] | 47.22 | 1670 | 175.3 | 1670 |
| CC(C)CN1C[C@@H]2CN(c3cc(C(=O)O)nc4c3c(C(C)C)nn4-c3ccc(F)cc3)C[C@@H]2C1 [compound 796, 1-(4-fluorophenyl)-4-[(3aR,6aS)-5-(2-methylpropyl)hexahydropyrrolo[3,4-c]pyrrol-2(1H)-yl]-3-(propan-2-yl)-1H-pyrazolo[3,4-b]pyridine-6-carboxylic acid] | 169.7 | 1670 | 358 | 1670 |
| CCN1CCCN(c2cc(C(=O)O)nc3c2c(C(C)C)nn3-c2ccc(F)cc2)CC1 [compound 797, 4-(4-ethyl-1,4-diazepan-1-yl)-1-(4-fluorophenyl)-3-(propan-2-yl)-1H-pyrazolo[3,4-b]pyridine-6-carboxylic acid] | 31.52 | 5000 | 178.6 | 1670 |
| CC(C)c1nn(-c2ccc(F)cc2)c2nc(C(=O)O)cc(N3CCC(O)(CN(C)C(C)C)CC3)c12 [compound 798, 1-(4-fluorophenyl)-4-(4-hydroxy-4-{[methyl(propan-2-yl)amino]methyl}piperidin-1-yl)-3-(propan-2-yl)-1H-pyrazolo[3,4-b]pyridine-6-carboxylic acid] | 58.3 | 1670 | 186.5 | 864 |
| CC(C)c1nn(-c2ccc(F)cc2)c2nc(C(=O)O)cc(N3CCC(N(C)C(C)C)CC3)c12 [compound 799, 1-(4-fluorophenyl)-4-{4-[methyl(propan-2-yl)amino]piperidin-1-yl}-3-(propan-2-yl)-1H-pyrazolo[3,4-b]pyridine-6-carboxylic acid] | 114 | 1670 | 306.6 | 1670 |
